The record followed here is ChEMBL document CHEMBL1201862, “PubChem BioAssay data set” (2004).

Test systems include DLD-1; DMS-114; HOP-18; KM-20L2; LXFL 529; M19-MEL; RXF 631; XF498; DMS-273.
Common to all, as to test: NCI-60 cell line screen, 48 h

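Each compound was tested at five concentrations against cells in 96-well plates for 48 hours. Here, GI50 denotes the concentration required for 50% inhibition of growth.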 Activity calls are given as the source filed them. No stated cut-off is given here; in the data, active = GI50 up to about 1.1 µM and inactive = higher.

Consider `OCCSCC/C(=N\N=C(/CCSCCO)c1ccccc1)c1ccccc1`, for which the GI50 was > 100 µM (inactive) in the assay on DLD-1; > 100 µM (inactive) in the assay on DMS-114; > 100 µM (inactive) with HOP-18; 49.9 µM (inactive) with KM-20L2; 82 µM (inactive) in the assay with LXFL 529; > 100 µM (inactive) in the assay with M19-MEL. Also, the GI50 in the assay with RXF 631 is 65.8 µM (inactive); in the assay on XF498, 69.2 µM (inactive).

Regarding `CCOC(=O)C1=C(N)N(c2ccccc2)/C(=C2\SC(=S)N(c3ccc(C)cc3)C2=O)S1`, the GI50 with HOP-18 was 45.2 µM (inactive); in the assay with LXFL 529, 59.2 µM (inactive); with M19-MEL, > 100 µM (inactive).

For the molecule `CCNC(=O)/C(=C/c1ccc(OC)cc1)c1cc(OC)c(OC)c(OC)c1`, the GI50 in the assay with DLD-1 was 14.7 µM (inactive); in the assay on DMS-114, 11.7 µM (inactive); in the assay on DMS-273, 3.47 µM (inactive); with HOP-18 it was > 100 µM (inactive); in the assay with KM-20L2, 3.91 µM (inactive); with LXFL 529, 24.2 µM (inactive). Further, the values for the GI50 in the assay with M19-MEL, in the assay on RXF 631 and in the assay on XF498 were 14.8 µM (inactive), 32.5 µM (inactive) and 17.3 µM (inactive), respectively.

For `C/C(=N/NC(N)=S)C(CN(C)C)C(C1=C(O)c2ccccc2OC1)c1ccccc1` (stereo not drawn), the GI50 in the assay on DLD-1, in the assay with DMS-114, in the assay with DMS-273, in the assay on HOP-18, with KM-20L2 and in the assay with LXFL 529 was > 100 µM (inactive) each time. Further, the GI50 with M19-MEL and in the assay on XF498 was > 100 µM (inactive) in each case.

For `COC(=O)/C(C#N)=C1\CCC(O)N1` (stereo not drawn), the GI50 in the assay on DLD-1, in the assay with DMS-114, in the assay on DMS-273, with HOP-18, in the assay on KM-20L2 and in the assay on LXFL 529 was > 100 µM (inactive) throughout. Moreover, the GI50 in the assay on M19-MEL and with XF498 was > 100 µM (inactive) each time.

On to `Cc1nnc2n1N=C(CC(=O)c1ccc(O)cc1O)CN2N`, for which the GI50 with DLD-1 was > 100 µM (inactive); in the assay with DMS-114 it was 19.6 µM (inactive); in the assay with DMS-273, 40.4 µM (inactive); in the assay with KM-20L2, > 100 µM (inactive); in the assay with LXFL 529, > 100 µM (inactive); with M19-MEL it was 91.4 µM (inactive). Also, in the assay with RXF 631, the GI50 was > 100 µM (inactive).

Take `O=C(O)C1CCC(=O)N1C(=O)C(Cl)c1ccccc1` (stereo not drawn): the GI50 in the assay on DLD-1, with DMS-114, with DMS-273, in the assay with HOP-18, in the assay with KM-20L2 and with LXFL 529 was > 100 µM (inactive) in each case. Further, the GI50 in the assay on M19-MEL, with RXF 631 and with XF498 was > 100 µM (inactive) each time.

Turning to `COc1ccc(C(=O)Nc2ccccc2C#N)cc1`, the GI50 in the assay on DLD-1, with DMS-273, with HOP-18, in the assay on KM-20L2, in the assay on M19-MEL and in the assay on XF498 was > 100 µM (inactive) each time.

Turning to `CN(C)CCC[N+]1=Nc2cccc3cccc(c23)N1`, the GI50 in the assay with DLD-1 is 17.5 µM (inactive); in the assay on DMS-114, 60.3 µM (inactive); with DMS-273 it was 18.8 µM (inactive); in the assay on HOP-18, > 100 µM (inactive); with KM-20L2, 23.7 µM (inactive); with LXFL 529 it was 49.8 µM (inactive). The GI50 in the assay with M19-MEL is 48.2 µM (inactive); with RXF 631, > 100 µM (inactive); in the assay with XF498, > 100 µM (inactive).

Regarding `COc1ccc(N2C(=O)C3c4[nH]c5ccc(OC)cc5c4C4CCC(C(C)(C)C)CC4C3C2=O)cc1` (stereo not drawn), the GI50 in the assay with DLD-1 was 64.7 µM (inactive); in the assay with DMS-114, 34.4 µM (inactive); in the assay with DMS-273, 10.2 µM (inactive); with HOP-18 it was 44.1 µM (inactive); in the assay on KM-20L2 it was 86.9 µM (inactive); in the assay on LXFL 529, 17.6 µM (inactive). For the same molecule, the GI50 in the assay on M19-MEL was 48.5 µM (inactive); in the assay on XF498, 56.2 µM (inactive).

As to `Cc1c(C(=O)C/C(=N\O)C(=O)Nc2cc(Cl)c(Cl)cc2Cl)[n+]([O-])c2ccccc2[n+]1[O-]`, the GI50 in the assay with DLD-1 was 22 µM (inactive); in the assay with DMS-114, 4.37 µM (inactive); with DMS-273 it was 17.1 µM (inactive); with HOP-18, 20.7 µM (inactive); in the assay on KM-20L2 it was 15.9 µM (inactive); in the assay with LXFL 529 it was 15 µM (inactive). Further, the GI50 with M19-MEL was 2.2 µM (inactive); with XF498 it was 25.9 µM (inactive).

For the molecule `COc1cc(C(C)c2cc3c(cc2OCCN)OCO3)cc(OC)c1OC` (stereo not drawn), the GI50 was 36 µM (inactive) in the assay with DLD-1; 52 µM (inactive) with DMS-114; > 100 µM (inactive) in the assay on DMS-273; 28.8 µM (inactive) in the assay on KM-20L2; 75.5 µM (inactive) in the assay on LXFL 529; 39.8 µM (inactive) with M19-MEL. In the assay on RXF 631, the GI50 is > 100 µM (inactive).

On to `COc1cc2ccnc([C@@H](OC(=O)c3ccccc3)c3ccc(OC)c(OC)c3OC)c2cc1OC`, for which the GI50 with DLD-1 was 27.9 µM (inactive); with DMS-114, 33.1 µM (inactive); in the assay on DMS-273 it was > 10 µM (inactive); with HOP-18 it was > 100 µM (inactive); in the assay on KM-20L2 it was 32.3 µM (inactive); in the assay with LXFL 529, 30.8 µM (inactive). For the same molecule, the figures for the GI50 in the assay with M19-MEL and in the assay on RXF 631 were 73.6 µM (inactive) and 50 µM (inactive), respectively.

For the molecule `C=CCN1C(=O)C(=O)N(CC=C)C(=O)C1=O`, the GI50 in the assay on DLD-1, in the assay with DMS-114, in the assay on DMS-273, in the assay on KM-20L2, in the assay with LXFL 529 and with M19-MEL was > 100 µM (inactive) in each case. For the same molecule, the GI50 in the assay with XF498 is > 100 µM (inactive).

In the case of `N=C(N)Cn1cnc2ccccc21`, the GI50 in the assay on DMS-114, in the assay on HOP-18, in the assay on KM-20L2, in the assay with LXFL 529 and in the assay on M19-MEL was > 100 µM (inactive) throughout.

With `Cc1c2c(ccc3ccccc32)c[n+]2ccccc12`, the GI50 was 9.75 µM (inactive) in the assay with DLD-1; 3.24 µM (inactive) in the assay with DMS-114; 12.7 µM (inactive) in the assay with DMS-273; 12.6 µM (inactive) in the assay with KM-20L2; 5.09 µM (inactive) in the assay with LXFL 529.

For `N=c1c2ccccc2sc2nc3ccccc3n12`, the GI50 with DLD-1, in the assay with DMS-114, in the assay with DMS-273, in the assay with HOP-18, with LXFL 529 and with M19-MEL was > 100 µM (inactive) throughout. The GI50 in the assay on XF498 is 85.1 µM (inactive).

Take `CN(CCc1ccccn1)c1nc(=[N+](C)C)ss1`: the GI50 with DLD-1 was > 100 µM (inactive); with DMS-114, > 100 µM (inactive); in the assay with DMS-273, > 100 µM (inactive); with HOP-18, > 100 µM (inactive); with KM-20L2 it was > 100 µM (inactive); with LXFL 529 it was 72.9 µM (inactive). Also, the GI50 with M19-MEL is 78.5 µM (inactive); in the assay on RXF 631 it was > 100 µM (inactive); in the assay on XF498, > 100 µM (inactive).

As to `Nc1ccc2n[se]nc2c1`, the GI50 with DLD-1, in the assay with DMS-114, in the assay on DMS-273, in the assay with HOP-18, in the assay on KM-20L2 and in the assay with LXFL 529 was > 100 µM (inactive) in each case. Also, the GI50 in the assay with M19-MEL, in the assay with RXF 631 and with XF498 was > 100 µM (inactive) each time.

Regarding `CC/N=C(/C#N)NCC`, the GI50 was > 100 µM (inactive) with DLD-1; 37.6 µM (inactive) in the assay on DMS-114; 44.5 µM (inactive) with DMS-273; > 100 µM (inactive) in the assay on HOP-18; > 100 µM (inactive) with KM-20L2; > 100 µM (inactive) in the assay on LXFL 529. Further, the GI50 in the assay with M19-MEL and in the assay on XF498 was > 100 µM (inactive) each time.

As to `C/C=C(/C)C(=O)O[C@H]1[C@H](O)CC(c2ccc3c(c2O)C(=O)C2=C(O)C4(OC)C(=O)C(C(N)=O)=C(O)[C@H](CC(=O)c5ccccc5O)C4CC2[C@@]3(C)OC)O[C@@H]1C` (stereo partly drawn), the GI50 with DLD-1, in the assay on DMS-114, in the assay on DMS-273, in the assay on HOP-18, with KM-20L2 and in the assay on LXFL 529 was 0.01 µM (active) in each case. Moreover, the GI50 in the assay with M19-MEL is 0.01 µM (active).

As for `CCCCCCCCCCCC(=O)CC(=O)c1c(O)cccc1O`, the GI50 in the assay on DLD-1 is 17.7 µM (inactive); in the assay on DMS-114 it was 18.8 µM (inactive); in the assay on DMS-273 it was 18.4 µM (inactive); in the assay on HOP-18 it was 16.4 µM (inactive); in the assay with KM-20L2, 20.5 µM (inactive); in the assay on LXFL 529 it was 18.2 µM (inactive). Also, the values for the GI50 in the assay with M19-MEL and in the assay with XF498 were 18.3 µM (inactive) and 18.5 µM (inactive), respectively.
